According to ChEMBL document CHEMBL1201862, “PubChem BioAssay data set” (2004):
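Dose response: 5 concentrations. Exposure: 48 h. Format: 96-well plates. Endpoint: linear interpolation; highest concentration if not reached. GI50 = concentration required for 50% inhibition of growth.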 Calls of active or inactive are those of the source. Rule as the data show it: active = GI50 up to about 1.1 µM and inactive = higher.

Columns and labels:
Experiment in all cases: DTP human tumour cell line panel, 48 h
SF-295 = test system: SF-295
NCI-H23 = test system: NCI-H23
NCI-H522 = test system: NCI-H522
EKVX = test system: EKVX
IGROV-1 = test system: IGROV-1
UO-31 = test system: UO-31
SK-MEL-2 = test system: SK-MEL-2
HCT-116 = test system: HCT-116
OVCAR-3 = test system: OVCAR-3
PC-3 = test system: PC-3
MDA-MB-435 = test system: MDA-MB-435
HCT-15 = test system: HCT-15
HT-29 = test system: HT-29
SNB-19 = test system: SNB-19
BT-549 = test system: BT-549
TK-10 = test system: TK-10
NCI/ADR-RES = test system: NCI/ADR-RES
Hs-578T = test system: Hs-578T
T47D = test system: T47D

Structure (SMILES) | GI50 (SF-295) | GI50 (NCI-H23) | GI50 (NCI-H522) | GI50 (EKVX) | GI50 (IGROV-1) | GI50 (UO-31) | GI50 (SK-MEL-2) | GI50 (HCT-116) | GI50 (OVCAR-3) | GI50 (PC-3) | GI50 (MDA-MB-435) | GI50 (HCT-15) [µM] | GI50 (HT-29) | GI50 (SNB-19) | GI50 (BT-549) | GI50 (TK-10) | GI50 (NCI/ADR-RES) | GI50 (Hs-578T) | GI50 (T47D)
NS(=O)(=O)c1nnc(NC(=O)N(c2ccccc2)c2ccccc2)s1 | 34 µM (inactive) | 19.1 µM (inactive) | 16.8 µM (inactive) | 24.8 µM (inactive) | 17.7 µM (inactive) | 24 µM (inactive) | 31.3 µM (inactive) | 29.4 µM (inactive) | 19.5 µM (inactive) | 33 µM (inactive) | 23.4 µM (inactive) | 22.5 | 27.6 µM (inactive) | 24.4 µM (inactive) | 16.1 µM (inactive) | 41.2 µM (inactive) | 18.2 µM (inactive) | 25 µM (inactive) | 
CC(=O)c1c2c(cc3c1CC1(Cc4ccccc4C1=O)C3)CCC2 (stereo unspecified) | 25.2 µM (inactive) | 16 µM (inactive) | 25.5 µM (inactive) | 7.06 µM (inactive) | 16.3 µM (inactive) | 21.2 µM (inactive) | 27.1 µM (inactive) | 16.7 µM (inactive) | 15.1 µM (inactive) | 41.3 µM (inactive) | 22.3 µM (inactive) | 32.1 | 20.5 µM (inactive) | 45.2 µM (inactive) |  | 20.5 µM (inactive) | 14.5 µM (inactive) | 28.8 µM (inactive) | 6.87 µM (inactive)
NCCCCNCCCNC(=O)c1csc(-c2nc(CCN)sc2Cl)n1 | > 100 µM (inactive) | > 100 µM (inactive) |  | > 100 µM (inactive) | > 100 µM (inactive) | > 100 µM (inactive) |  | > 100 µM (inactive) | > 100 µM (inactive) | > 100 µM (inactive) | > 100 µM (inactive) | > 100 | > 100 µM (inactive) | > 100 µM (inactive) | > 100 µM (inactive) | > 100 µM (inactive) | > 100 µM (inactive) | > 100 µM (inactive) | > 100 µM (inactive)
O=c1[nH]nc(Nc2ccccc2)c2nnn(C3CCCCC3)c12 | > 100 µM (inactive) | > 100 µM (inactive) |  | > 100 µM (inactive) |  | > 100 µM (inactive) | > 100 µM (inactive) | > 100 µM (inactive) | > 100 µM (inactive) | > 100 µM (inactive) | > 100 µM (inactive) | > 100 | > 100 µM (inactive) | > 100 µM (inactive) | > 100 µM (inactive) | > 100 µM (inactive) | > 100 µM (inactive) |  | 
O=C(CN1CCOCC1)Nc1ccc2c(c1)C1Oc3ccccc3CC1CO2 (stereo unspecified) | > 100 µM (inactive) | > 100 µM (inactive) | > 100 µM (inactive) | > 100 µM (inactive) | > 100 µM (inactive) | > 100 µM (inactive) | > 100 µM (inactive) | > 100 µM (inactive) | > 100 µM (inactive) | > 100 µM (inactive) | > 100 µM (inactive) | > 100 | > 100 µM (inactive) | > 100 µM (inactive) | 38.1 µM (inactive) | > 100 µM (inactive) | > 100 µM (inactive) |  | > 100 µM (inactive)
C=Cc1ccc(C)[n+](C[Si](C)(C)O[Si](C)(C)C)c1 | > 100 µM (inactive) | > 100 µM (inactive) | > 100 µM (inactive) | > 100 µM (inactive) | > 100 µM (inactive) | > 100 µM (inactive) | > 100 µM (inactive) | > 100 µM (inactive) | > 100 µM (inactive) |  |  | > 100 | > 100 µM (inactive) | > 100 µM (inactive) |  |  |  |  | 
Cc1nc2c(O)cc3c4c(=O)n(C)c(=O)n(C)c4n(Cc4ccccc4)c3c2nc1C | 50.5 µM (inactive) | 19.3 µM (inactive) |  | 24.3 µM (inactive) |  | 17.6 µM (inactive) | 18 µM (inactive) | 14.4 µM (inactive) |  | 16.7 µM (inactive) | 17.4 µM (inactive) | 17.9 | 15.8 µM (inactive) | 18.6 µM (inactive) |  | 17.6 µM (inactive) | 25.8 µM (inactive) | 26.5 µM (inactive) | 
C[Si](C)(OCCS(=O)(=O)O)OC(=C1S(=O)(=O)OCCOS1(=O)=O)c1cccc2ccccc12 | > 100 µM (inactive) | > 100 µM (inactive) |  | > 100 µM (inactive) | 72.9 µM (inactive) | > 100 µM (inactive) | > 100 µM (inactive) | > 100 µM (inactive) | 36.5 µM (inactive) | > 100 µM (inactive) | > 100 µM (inactive) | > 100 | > 100 µM (inactive) | > 100 µM (inactive) | > 100 µM (inactive) | > 100 µM (inactive) | > 100 µM (inactive) |  | 
CSc1ccc2c(cc1=O)[C@@H](NC(=O)c1ccc(Cl)cc1)CCc1cc(O)c(O)c(O)c1-2 | 38.5 µM (inactive) | 32.1 µM (inactive) | 15.4 µM (inactive) | 69.2 µM (inactive) | 22.1 µM (inactive) | > 100 µM (inactive) | > 100 µM (inactive) | 18.2 µM (inactive) | 23.2 µM (inactive) |  |  | 21.6 | > 100 µM (inactive) | 49.5 µM (inactive) |  | > 100 µM (inactive) |  |  | 
